ChEMBL document CHEMBL1158509, “Novel selective thiazoleacetic acids as CRTH2 antagonists developed from in silico derived hits. Part 2” (Bioorg Med Chem Lett, 2010)

Assays:
[1] = target: T1, Prostaglandin D2 receptor 2 (Homo sapiens, UniProt Q9Y5Y4); assay: Displacement of[3H]PGD2 from human CRTH2 receptor expressed in […] cells; format: cell-based
T1 sequence (Q9Y5Y4 whole entry): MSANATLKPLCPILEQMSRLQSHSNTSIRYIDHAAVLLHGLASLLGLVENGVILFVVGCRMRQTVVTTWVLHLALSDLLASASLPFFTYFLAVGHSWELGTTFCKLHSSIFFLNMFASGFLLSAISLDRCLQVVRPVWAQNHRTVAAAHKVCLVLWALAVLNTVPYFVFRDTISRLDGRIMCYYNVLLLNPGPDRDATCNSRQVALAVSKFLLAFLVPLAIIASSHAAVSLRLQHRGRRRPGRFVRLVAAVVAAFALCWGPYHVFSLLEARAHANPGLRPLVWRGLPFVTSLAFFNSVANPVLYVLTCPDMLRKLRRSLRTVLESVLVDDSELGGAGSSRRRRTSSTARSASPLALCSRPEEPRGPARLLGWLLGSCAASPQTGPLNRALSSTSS

[2] = target: T1, Prostaglandin D2 receptor 2; assay: Antagonist activity at human CRTH2 receptor expressed in […] cells assessed as inhibition of beta arrestin translocation by bioluminescence resonance energy transfer assay; format: functional, cell-based
[3] = target: T2, Prostaglandin D2 receptor 2 (Homo sapiens) (UniProt Q9Y5Y4); assay: Antagonist activity at human CRTH2 receptor expressed in […] cells assessed as inhibition of beta arrestin translocation by bioluminescence resonance energy transfer assay relative to control; format: functional, cell-based
T2 sequence (whole entry): T1 sequence (Q9Y5Y4 whole entry)

Row | Structure (SMILES) | IC50 [1] [µM] | IC50 [2] [µM] | Efficacy [3] [%]
1 | COc1ccc(C(c2ccc(OC)cc2)c2nc(-c3ccc(F)cc3)c(CC(=O)O)s2)cc1 | 0.0039 | 0.031 | 80
2 | COc1ccc(Cl)cc1-c1nc(C(c2ccccc2)c2ccccc2)sc1CC(=O)O | 9.4 | > 100 | 80
3 | O=C(O)Cc1sc(C(c2ccccc2)c2ccc(F)c(F)c2)nc1-c1ccc(F)cc1 (configuration not stated) | 0.01 | 0.064 | 80
4 | O=C(O)Cc1sc(C(c2ccc(F)cc2)c2ccc(F)cc2)nc1-c1cccc(F)c1 | 0.0014 | 0.018 | 80
5 | CC(=O)N1CCN(c2cc(-c3nc(C(c4ccc(F)cc4)c4ccc(F)cc4)sc3CC(=O)O)ccn2)CC1 | 0.36 | > 100 | 80
6 | O=C(O)Cc1sc(C2(c3ccccc3)CCNCC2)nc1-c1ccc(Cl)cc1 | 2.9 | > 100 | 50
7 | O=C(O)Cc1sc(C(c2ccc(F)cc2)c2ccc(F)cc2)nc1-c1cc(F)nc(F)c1 | 0.0054 | 0.11 | 80
8 | Cc1cc(-c2nc(C(c3ccc(F)cc3)c3ccc(F)cc3)sc2CC(=O)O)ccn1 | 0.0031 | 0.053 | 80
9 | O=C(O)Cc1sc(C(c2ccc(F)cc2)c2ccc(F)cc2)nc1-c1cn[nH]c1 | 0.016 | 0.22 | 80
10 | Cn1cc(-c2nc(C(c3ccc(F)cc3)c3ccc(F)cc3)sc2CC(=O)O)cn1 | 1.3 | 3.5 | 80
11 | O=C(O)Cc1sc(C(c2ccccc2)c2ccccc2)nc1-c1ccccc1 | 0.57 | 0.37 | 80
12 | O=C(O)Cc1sc(Cc2ccccc2)nc1-c1ccc(Cl)cc1 |  |  | 50
13 | COc1ccc(C(c2ccccn2)c2nc(-c3ccc(Cl)cc3)c(CC(=O)O)s2)cc1 (configuration not stated) | 0.061 | 0.31 | 80
14 | O=C(O)Cc1sc(C(c2ccccc2)c2ccc(Cl)cc2)nc1-c1ccc(Cl)cc1 (configuration not stated) | 0.045 | 0.075 | 80
15 | O=C(O)Cc1sc(C(c2ccc(F)cc2)c2ccc(F)cc2)nc1-c1cc(F)cc(F)c1 | 0.035 | 0.34 | 80
16 | Cc1cc(-c2nc(C(c3ccc(F)cc3)c3ccc(F)cc3)sc2CC(=O)O)cnc1N | 0.88 | > 100 | 80
17 | O=C(O)Cc1sc(C(c2ccc(F)cc2)c2ccc(F)cc2)nc1-c1ccnc(Cl)c1 | 0.0031 | 0.039 | 80
18 | N#Cc1cccc(-c2nc(C(c3ccc(F)cc3)c3ccc(F)cc3)sc2CC(=O)O)c1 | 0.02 | 0.22 | 80
19 | O=C(O)Cc1sc(COc2ccc(Cl)cc2)nc1-c1ccc(Cl)cc1 | 0.032 | 0.37 | 50
20 | O=C(O)Cc1sc(C(c2ccccc2)c2ccc(Cl)cc2)nc1-c1ccc(F)cc1 (configuration not stated) | 0.014 | 0.079 | 80
21 | O=C(O)Cc1sc(C(c2ccccc2)c2ccccc2)nc1-c1cccc(F)c1 | 0.0029 | 0.029 | 80
22 | O=C(O)Cc1sc(Cc2cccc3ccccc23)nc1-c1ccc(Cl)cc1 | 0.041 | 0.57 | 30
23 | CCC(c1ccccc1)c1nc(-c2ccc(Cl)cc2)c(CC(=O)O)s1 (configuration not stated) | 0.19 | > 100 | 50
24 | O=C(O)Cc1sc(C(c2ccc(F)cc2)c2ccc(F)cc2)nc1-c1ccncc1 | 0.0053 | 0.04 | 80
25 | O=C(O)Cc1sc(C(c2ccc(F)cc2)c2ccc(F)cc2)nc1-c1ccnc(N2CCC2)c1 | 0.66 | > 100 | 80
26 | O=C(O)Cc1sc(C2COc3ccccc3O2)nc1-c1ccc(Cl)cc1 (configuration not stated) | 0.5 | 2 | 50
27 | Nc1ccc(-c2nc(C(c3ccc(F)cc3)c3ccc(F)cc3)sc2CC(=O)O)cn1 | 0.1 | 0.5 | 60

Now from value to compound:

Row | IC50 [1] [µM] | IC50 [2] [µM] | Efficacy [3] [%] | Structure (SMILES)
28 | 1.5 | 0.73 | 30 | O=C(O)Cc1sc(CS(=O)(=O)c2ccc(Cl)cc2)nc1-c1ccc(Cl)cc1
29 |  | 0.96 | 50 | O=C(O)Cc1sc(-c2ccccc2)nc1-c1ccc(Cl)cc1 [FENTIAZAC]
30 | 0.00048 | 0.0047 | 80 | O=C(O)Cc1sc(C(c2ccc(F)cc2)c2ccc(F)cc2)nc1-c1ccnc(F)c1
31 | 0.59 | 6.3 | 30 | CS(=O)(=O)c1cccc(-c2nc(C(c3ccc(F)cc3)c3ccc(F)cc3)sc2CC(=O)O)c1
32 | 0.28 | 3.3 | 30 | O=C(O)Cc1sc(C(c2ccc(F)cc2)c2ccc(F)cc2)nc1-c1ccn[nH]1
33 | 0.0075 | 0.072 | 80 | O=C(O)Cc1sc(C(c2ccc(F)cc2)c2ccc(F)cc2)nc1-c1ccc(F)cc1
34 | 0.15 | 1.5 | 30 | N#Cc1ccc(-c2nc(C(c3ccc(F)cc3)c3ccc(F)cc3)sc2CC(=O)O)cc1
35 | 0.14 | 0.71 | 55 | NS(=O)(=O)c1cccc(-c2nc(C(c3ccc(F)cc3)c3ccc(F)cc3)sc2CC(=O)O)c1
36 | 0.38 | > 100 | 80 | CN(C)c1cc(-c2nc(C(c3ccc(F)cc3)c3ccc(F)cc3)sc2CC(=O)O)ccn1
37 | 1.5 | > 100 | 80 | NS(=O)(=O)c1ccc(-c2nc(C(c3ccc(F)cc3)c3ccc(F)cc3)sc2CC(=O)O)cc1
38 | 0.0034 | 0.03 | 80 | O=C(O)Cc1sc(C(c2ccccc2)c2ccc(O)cc2)nc1-c1ccc(F)cc1 (configuration not stated)
39 | 0.0035 | 0.041 | 80 | O=C(O)Cc1sc(C(c2ccc(F)cc2)c2ccc(F)cc2)nc1-c1ccc(F)c(F)c1
40 |  | 1.3 | 50 | O=C(O)Cc1sc(-c2ccc(Oc3ccccc3)cc2)nc1-c1ccc(Cl)cc1
41 | 0.056 | 0.51 | 50 | O=C(O)Cc1sc(C(Cc2ccccc2)c2ccccc2)nc1-c1ccc(Cl)cc1 (configuration not stated)
42 | 0.81 | 1.9 | 55 | O=C(O)Cc1sc(C(c2ccccc2)c2ccccn2)nc1-c1ccc(Cl)cc1 (configuration not stated)
43 | 0.068 | 0.51 | 80 | O=C(O)Cc1sc(C(c2ccc(F)cc2)c2ccc(F)cc2)nc1-c1cccnc1
44 | 0.65 | 0.39 | 50 | O=C(O)Cc1sc(NCCc2ccccc2)nc1-c1ccc(Cl)cc1
45 | 0.057 | 0.52 | 80 | N#Cc1cc(-c2nc(C(c3ccc(F)cc3)c3ccc(F)cc3)sc2CC(=O)O)ccc1F

Row | IC50 [1] [µM] | IC50 [2] [µM] | Efficacy [3] [%] | Structure (SMILES)
46 |  |  | 60 | O=C(O)Cc1sc(C(c2ccc(F)cc2)c2ccc(F)cc2)nc1-c1ccnc(O)c1
47 | 0.016 | 0.24 | 80 | O=C(O)Cc1sc(C(c2ccc(F)cc2)c2ccc(F)cc2)nc1-c1ccccc1
48 | 0.0097 | 0.18 | 80 | O=C(O)Cc1sc(C(c2ccc(F)cc2)c2ccc(F)cc2)nc1-c1ccc(Cl)cc1
49 | 0.37 | 0.91 | 55 | COc1ccc(-c2nc(C(c3ccccc3)c3ccccc3)sc2CC(=O)O)cc1
50 | 0.34 | 32 | 50 | O=C(O)Cc1sc(CC(c2ccccc2)c2ccccc2)nc1-c1ccc(Cl)cc1
51 | 0.068 | 0.89 |  | O=C(O)Cc1sc(C(c2ccc(F)cc2)c2ccc(F)cc2)nc1-c1cc[nH]c(=O)c1
52 | 0.014 | 0.13 | 80 | O=C(O)Cc1sc(C(c2ccc(F)cc2)c2ccc(F)cc2)nc1-c1ccoc1
53 | 0.025 | 0.17 | 80 | CNc1cc(-c2nc(C(c3ccc(F)cc3)c3ccc(F)cc3)sc2CC(=O)O)ccn1
54 | 0.53 | > 100 | 50 | O=C(O)Cc1sc(C(c2ccccc2)C2CCCCC2)nc1-c1ccc(Cl)cc1 (configuration not stated)
55 | 0.15 | 0.096 | 50 | O=C(O)Cc1sc(Nc2cccc3ccccc23)nc1-c1ccc(Cl)cc1
56 |  | > 100 | 80 | COc1ccc(OC)c(-c2nc(C(c3ccccc3)c3ccccc3)sc2CC(=O)O)c1
57 | > 100 | > 100 | 50 | Nc1nc(-c2ccc(Cl)cc2)c(CC(=O)O)s1
58 | 1.1 | > 100 | 80 | O=C(O)Cc1sc(C(c2ccccc2)c2ccccc2)nc1-c1ccc(C(F)(F)F)cc1
59 | 0.25 | 0.45 | 50 | O=C(O)Cc1sc(CSc2ccccc2)nc1-c1ccc(Cl)cc1
60 | 0.029 | 0.38 | 60 | COc1cc(-c2nc(C(c3ccc(F)cc3)c3ccc(F)cc3)sc2CC(=O)O)ccn1
61 |  |  | 50 | O=C(O)Cc1sc(Cc2ccccc2-c2ccccc2)nc1-c1ccc(Cl)cc1
62 | 0.018 | 0.14 | 80 | O=C(O)Cc1sc(C(c2ccc(F)cc2)c2ccc(F)cc2)nc1-c1ccco1
63 |  |  | 50 | O=C(O)Cc1sc(Nc2ccccc2)nc1-c1ccc(Cl)cc1
